Experimental data reported in patent US10703746B2, “Mutant IDH1 inhibitors useful for treating cancer” (THE UNITED STATES OF AMERICA, AS REPRESENTED BY THE …, priority 2014, dated 2020).

Tests used:
[1] = target: IDH1 R132H (Homo sapiens, UniProt O75874, R132H); assay: IDH1 R132H enzymatic assay (NADPH depletion coupled to diaphorase/resazurin); format: biochemical
[2] = target: IDH1 R132C (Homo sapiens, UniProt O75874, R132C); assay: IDH1 R132C enzymatic assay (NADPH depletion coupled to diaphorase/resazurin); format: biochemical
Chain of IDH1 R132C (O75874 whole entry R132C): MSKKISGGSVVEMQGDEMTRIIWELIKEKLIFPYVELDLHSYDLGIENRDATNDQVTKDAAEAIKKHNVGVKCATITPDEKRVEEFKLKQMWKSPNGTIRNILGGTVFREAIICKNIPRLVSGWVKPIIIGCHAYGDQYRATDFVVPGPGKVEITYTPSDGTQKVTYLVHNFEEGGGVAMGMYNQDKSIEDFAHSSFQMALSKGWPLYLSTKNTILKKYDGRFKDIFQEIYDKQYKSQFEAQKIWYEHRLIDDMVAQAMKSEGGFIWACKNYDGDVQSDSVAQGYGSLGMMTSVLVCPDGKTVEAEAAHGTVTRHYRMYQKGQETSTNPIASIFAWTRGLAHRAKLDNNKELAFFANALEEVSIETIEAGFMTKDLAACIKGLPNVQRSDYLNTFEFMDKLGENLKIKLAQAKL
Summary of the method: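 NADPH depletion, read via diaphorase/resazurin coupling, after adding substrate at 0.6 mM α-KG and 0.012 mM NADPH. Beforehand, 0.00032 mg/mL enzyme sat with compound 30 min at room temperature in pH 6.5 potassium phosphate buffer with MgCl2, glycerol and BSA.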

[3] = enzymatic inhibition, IDH1 R132H
[4] = enzymatic inhibition, IDH1 R132C
[5] = IDH1 R132H enzymatic inhibition, IC50 class
[6] = IDH1 R132C enzymatic inhibition, IC50 class

Chain of IDH1 R132H (O75874 whole entry R132H): as the sequence (O75874 whole entry R132C) above, with C132H counted along it

Compound	IC50 [1, 3] [nM]	IC50 [2, 4] [nM]	IC50 [1, 5] [nM]	IC50 [2, 6] [nM]
CCc1cccc(CC)c1-n1c(C=C(C)C)c(C(=O)N2CCNC[C@H]2C)cc(-c2nc(-c3ccc(C(F)(F)F)cc3)cs2)c1=O [Compound 533]	< 300	< 300	–	–
CCc1cccc(CC)c1-n1c(C=C(C)C)c(C(=O)N2CCNCC2CC)cc(-c2nc(-c3ccc(Cl)cc3)cs2)c1=O (centres unmarked) [Compound 569]	< 300	< 300	–	–
CCOc1ccc(-c2nc(-c3cc(C(=O)N4CCNCC4)c(CC(C)C)n(-c4c(CC)cccc4CC)c3=O)sc2C)cc1 [Compound 285]	–	–	< 300	< 300
CCc1cccc(CC)c1-n1c(CC2CCNCC2)c(C(=O)NC)cc(-c2nc(-c3ccc(Cl)cc3)cs2)c1=O [Compound 365]	–	–	5000 to 20000	5000 to 20000
CC1(C)CC(=O)c2cc(-c3nc(-c4ccc(Cl)cc4)cs3)c(=O)n(C3CCCCC3)c2C1 [Compound 216]	–	–	> 20000	5000 to 20000
Cc1ccc(C(=O)O)cc1-n1c2c(cc(-c3nc(-c4ccc(Cl)cc4)cs3)c1=O)C(=O)CC(C)(C)C2 [Compound 166]	–	–	> 20000	5000 to 20000
CC1(C)CC(=O)c2cc(-c3nc(-c4ccc(Cl)cc4)cs3)c(=O)n(-c3ccccc3CC(F)(F)F)c2C1 [Compound 115]	–	–	300 to 1000	300 to 1000
CCc1ncc(OC)cc1-n1c(C=C(C)C)c(C(=O)N2CCNCC2)cc(-c2nc(-c3ccc(C(F)F)cc3)cs2)c1=O [Compound 427]	< 300	300 to 1000	–	–
CCc1cccc(CC)c1-n1c(CC2CCOC2)c(C(=O)N2CCNCC2)cc(-c2nc(-c3ccc(Cl)cc3)cs2)c1=O (centres unmarked) [Compound 611]	< 300	< 300	–	–
COc1ccccc1-n1c2c(cc(-c3nc(-c4ccc(Cl)cc4)cs3)c1=O)C(=O)CCC2 [Compound 503]	1000 to 5000	1000 to 5000	–	–
CCc1cccc(CC)c1-n1c2c(cc(-c3nc(-c4cccc(C)c4)cs3)c1=O)C(=O)CC(C)(C)C2 [Compound 240]	–	–	5000 to 20000	1000 to 5000
CCOc1ncc(Cl)cc1-n1c(C=C(C)C)c(C(=O)N2CCNCC2)cc(-c2nc(-c3ccc(C(F)F)cc3)cs2)c1=O [Compound 407]	< 300	300 to 1000	–	–
CCc1cccc(CC)c1-n1c(CC(C)C)c(C(=O)N2CCNCC2)cc(-c2ccn(-c3ccccc3)n2)c1=O [Compound 104]	–	–	1000 to 5000	1000 to 5000
CCc1cccc(CC)c1-n1c(C)c(C(=O)N2CCN[C@@H](C)C2)cc(-c2nc(-c3ccc(Cl)cc3)cs2)c1=O [Compound 38]	–	–	< 300	300 to 1000
CCc1cccc(CC)c1-n1c(CC(C)C)c(C(=O)N2CCN[C@H](C(=O)O)C2)cc(-c2nc(-c3ccc(Cl)cc3)cs2)c1=O [Compound 189]	–	–	300 to 1000	< 300
CCc1cccc(CC)c1-n1c(CC(C)C)c(C(=O)N2CCN[C@@H](CO)C2)cc(-c2nc(-c3ccc(Cl)cc3)cs2)c1=O [Compound 8]	–	–	< 300	< 300
CCc1cccc(CC)c1-n1c(CC2CCC2)c(C(=O)N2CCNCC2)cc(-c2nc(-c3ccc(Cl)cc3)cs2)c1=O [Compound 433]	< 300	< 300	–	–
CCc1cccc(CC)c1-n1c2c(cc(-c3nc(-c4ccccc4OC)cs3)c1=O)C(=O)CC(C)(C)C2 [Compound 179]	–	–	1000 to 5000	1000 to 5000
CCc1cccc(CC)c1-n1c(CC(C)C)c(C(=O)NC[C@@H](NC(C)=O)C(=O)O)cc(-c2nc(-c3ccc(Cl)cc3)cs2)c1=O [Compound 29]	–	–	1000 to 5000	1000 to 5000
CCc1cccc(CC)c1-n1c(CC(C)C)c(C(=O)N2CCNC(C)C2C)cc(-c2nc(-c3ccc(Cl)cc3)cs2)c1=O (centres unmarked) [Compound 107]	–	–	300 to 1000	< 300
CCc1cccc(CC)c1-n1c(CC(C)C)c(C(=O)N2CCNCC2)cc(-c2nc(-c3ccc(Cl)cc3)c(Cl)s2)c1=O [Compound 662]	–	–	300 to 1000	< 300
CCc1ccc(OC)cc1-n1c(C=C(C)C)c(C(=O)N2CCNCC2)cc(-c2nc(-c3ccc(Cl)cc3)cs2)c1=O [Compound 539]	< 300	< 300	–	–
CCc1cccc(CC)c1-n1c(C(C)C)c(C(=O)N2CCN[C@@H](C)C2)cc(-c2nc(-c3ccc(Cl)cc3)cs2)c1=O [Compound 234]	–	–	1000 to 5000	300 to 1000

Compound	IC50 [1, 3] [nM]	IC50 [2, 4] [nM]	IC50 [1, 5] [nM]	IC50 [2, 6] [nM]
CCc1cccc(CC)c1-n1c(C(C)C)c(C(=O)N2CCNC[C@H]2C)cc(-c2nc(-c3ccc(Cl)cc3)cs2)c1=O [Compound 37]	–	–	1000 to 5000	300 to 1000
CCc1cccc(CC)c1-n1c(C=C(C)C)c(C(=O)N2CCNC(=O)C2CC(=O)O)cc(-c2nc(-c3ccc(Cl)cc3)cs2)c1=O (centres unmarked) [Compound 337]	–	–	< 300	< 300
CCc1cccc(CC)c1-n1c(CC(C)C)c(C(=O)NCC(C)(C)O)cc(-c2nc(-c3ccc(Cl)cc3)cs2)c1=O [Compound 77]	–	–	300 to 1000	< 300
CCc1cccc(CC)c1-n1c(CC(C)C)c(C(=O)N2CCNCC2)cc(-c2nc(-c3ccc(Cl)cc3F)c(C)s2)c1=O [Compound 632]	–	–	300 to 1000	300 to 1000
COc1ccc(Cl)c(-n2c3c(cc(-c4nc(-c5ccc(Cl)cc5)cs4)c2=O)C(=O)CC(C)(C)C3)c1 [Compound 395]	–	–	300 to 1000	< 300
CCc1cccc(CC)c1-n1c(CC(C)C)c(C(=O)N2CCNC(C(=O)O)C2)cc(-c2nc(-c3ccc(Cl)cc3)cs2)c1=O (centres unmarked) [Compound 171]	–	–	< 300	< 300
CCc1cccc(CC)c1-n1c(C=C(C)C)c(C(=O)N2CCNCC2COC)cc(-c2nc(-c3ccc(Cl)cc3)cs2)c1=O (centres unmarked) [Compound 536]	< 300	< 300	–	–
CCc1cccc(CC)c1-n1c(C=C(C)C)c(C(=O)N2CCCNC(=O)C2)cc(-c2nc(-c3ccc(Cl)cc3)cs2)c1=O [Compound 529]	< 300	< 300	–	–
CCc1cccc(CC)c1-n1c(C=C(C)C)c(C(=O)N2CCNCC2)cc(-c2nc(-c3ccc(C(F)(F)F)nc3)cs2)c1=O [Compound 418]	< 300	< 300	–	–
CCc1cccc(CC)c1-n1c(CC(C)C)c(C(=O)N2CCNCC2)cc(-c2ccn(-c3ccc(Cl)cc3)n2)c1=O [Compound 184]	–	–	< 300	< 300
CCc1cccc(CC)c1-n1c(CC(C)C)c(C(=O)N2CCNCC2)cc(-n2ccc(-c3ccc(Cl)cc3)n2)c1=O [Compound 452]	< 300	< 300	–	–
CCc1ncc(F)cc1-n1c(C=C(C)C)c(C(=O)N2CCNCC2)cc(-c2nc(-c3ccc(C(F)(F)F)cc3)cs2)c1=O [Compound 328]	–	–	< 300	< 300
CC1(C)CC(=O)c2cc(-c3nc(-c4ccc(Cl)cc4)cs3)c(=O)n(-c3ccccc3C(F)(F)F)c2C1 [Compound 57]	–	–	300 to 1000	< 300
CCCc1c(C(=O)N2CCNCC2)cc(-c2nc(-c3ccc(Cl)cc3)cs2)c(=O)n1-c1c(CC)cccc1CC [Compound 473]	< 300	< 300	–	–
CCOc1ncc(C)cc1-n1c(C=C(C)C)c(C(=O)N2CCNCC2)cc(-c2nc(-c3ccc(C(F)(F)F)nc3)cs2)c1=O [Compound 639]	–	–	< 300	300 to 1000
CCOc1ccc(F)cc1-n1c(C=C(C)C)c(C(=O)N2CCNCC2)cc(-c2nc(-c3ccc(C(F)F)cc3)cs2)c1=O [Compound 376]	–	–	< 300	< 300
CCc1cccc(CC)c1N1C(=O)C(c2nc(-c3ccc(Cl)cc3)cs2)CC(CN2CCNCC2)=C1CC(C)C (centres unmarked) [Compound 617]	–	–	1000 to 5000	1000 to 5000
CCc1cccc(CC)c1-n1c(CC(C)C)c(C(=O)N2CCNC(=O)C2c2ccccc2)cc(-c2nc(-c3ccc(Cl)cc3)cs2)c1=O (centres unmarked) [Compound 155]	–	–	300 to 1000	< 300
COc1ccc(OC)c(-n2cccc(-c3nc(-c4ccc(Cl)cc4)cs3)c2=O)c1 [Compound 78]	–	–	> 20000	> 20000
COc1ccc(Cl)c(-n2c(C=C(C)C)c(C(=O)N3CCNCC3)cc(-c3nc(-c4ccc(Cl)cc4)cs3)c2=O)c1 [Compound 500]	< 300	< 300	–	–
CC(=O)Nc1ccccc1-n1c2c(cc(-c3nc(-c4ccc(Cl)cc4)cs3)c1=O)C(=O)CC(C)(C)C2 [Compound 105]	–	–	1000 to 5000	5000 to 20000
CCc1cccc(CC)c1-n1c(CC(C)C)c(C(=O)N2CCNCC2)cc(-c2nc(-c3ccc(N4CCOCC4)cc3)c(C)s2)c1=O [Compound 211]	–	–	5000 to 20000	5000 to 20000
CCOc1ncc(Cl)cc1-n1c(C=C(C)C)c(C(=O)N2CCNCC2)cc(-c2nc(-c3ccc(C(F)F)cn3)cs2)c1=O [Compound 469]	300 to 1000	1000 to 5000	–	–
